Measured values as given in patent US10960084B2, “Modulation of fluid intake” (California Institute of Technology, priority 2018, dated 2021).

Test system: hM4Di-expressing MnPO^nNOS neurons
Experiment: Slice current-clamp recording, CNO on hM4Di-expressing MnPO^nNOS neurons
Assay type: cell-based, mice
Settings: brain slices
Excerpt: Procedures for preparation of acute brain slices and recordings with optogenetic stimulations were similar to those described previously^[10],[36]. After decapitation, the brain was removed and immersed in ice-cold solution. Coronal slices ([…]) were cut using a vibratome (VT-1200s, Leica) and moved into HEPES-holding solution (NaCl 92, KCl 2.5, NaH2PO4 1.2, NaHCO3 30, HEPES 20, glucose 25, Na-ascorbate 5, Thiourea 2, Na14 pyruvate 3, MgSO4 2, CaCl2 2, pH 7.35). The slices were allowed to recover at 33° C. for 30 min and then held at room temperature ([…]) until use.
While recording, slices were perfused continuously (˜2 mL/min) with artificial cerebrospinal fluid (ACSF-NaCl 124, KCl2.5, NaH2PO4 1.2, NaHCO3 24, glucose 25, MgSO4 1, CaCl2 2) at 25° C. Neurons were visualized and targeted using an upright IR19 DIC microscope (BX51WI, Olympus). […] In order to confirm the PSCs recorded were GABAergic, picrotoxin (150 μM) was applied through the bath in part of the experiments. […] CNO (˜6 μM) was applied by a puff (30 s) from another glass pipette placed ˜50 μm from the recorded cell.

## C[N+]1([O-])CCN(C2=Nc3cc(Cl)ccc3Nc3ccccc32)CC1 [CNO, clozapine-N-oxide]
CNO application
  neurons in which firing is inhibited: 6/6
Brief application of CNO
  firing of hM4Di-expressing MnPO^nNOS neurons: strongly suppressed the firing
